Assay [1] concerns the target T1, recombinant human FLAP protein (Homo sapiens, UniProt P20292).
T1 construct: made in house; host or cells: Sf9 insect cells (100,000xg membrane fraction used)
T1 sequence (P20292 1-161): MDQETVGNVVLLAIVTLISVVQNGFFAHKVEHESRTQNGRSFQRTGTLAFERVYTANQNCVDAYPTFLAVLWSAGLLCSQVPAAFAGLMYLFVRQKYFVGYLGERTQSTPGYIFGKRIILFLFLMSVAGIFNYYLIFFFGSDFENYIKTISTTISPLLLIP
Nature of the assay: FLAP binding assay (Scintillation Proximity Assay, displacement of [125I]L-691,831). The following applies: for IC50: read-out: FLAP SPA IC50. As for the experimental part:
Compounds are assessed for the ability to bind to FLAP in a binding assay that measures compound-specific displacement of an iodinated (^125I) FLAP inhibitor via a Scintillation Proximity Assay format (adapted from S. Charleson et al., Mol. Pharmacol., 1992, 41, 873-879).
Cell pellets produced from sf9 insect cells expressing recombinant human FLAP protein are resuspended in buffer A [15 mM Tris-HCl (pH 7.5), 2 mM MgCl2, 0.3 mM EDTA, 1 mM PMSF]. The cells are lysed with a Dounce homogenizer and the material is centrifuged at 10,000×g for 10 minutes. The supernatant is then collected and centrifuged at 100,000×g for 60 minutes. To prepare membrane protein for an assay, an aliquot of the 100,000×g pellet is resuspended in 1 ml of buffer A, Dounce homogenized, and finally subjected to polytron mixing (30 seconds). Membrane protein (25 μl, 5 μg) is mixed with WGA SPA beads (Amersham) and stirred for 1 h. […] (final concentrations: beads, 200 μg/well; protein, 5 μg/well; [^125I] probe, 0.08 nM/well (17 nCi/well). The plates are shaken for 2 h before reading on a Microbeta plate reader. Non-specific binding is determined by the addition of 10 μM cold L-691,831 compound.
(Scintillation proximity formats need no separation of bound from free tracer.)

For assay [2], the system named is synthesis of LTB4 in human whole blood. Nature of the assay: human whole blood LTB4 production inhibition assay. The class given is cell-based. The following applies: calcimycin stimulated, read-out: hWB LTB4 IC50. As for the experimental part:
Compounds are additionally tested in a human whole blood assay to determine their ability to inhibit the synthesis of LTB4 in a cellular system. Compounds are combined with heparinized human whole blood and incubated for 15 minutes at 37° C. Calcimycin (20 μM final, prepared in phosphate-buffered saline, pH 7.4) is then added and the mixture is incubated for another 30 minutes at 37° C. The samples are centrifuged for 5 min at low speed (1500×g) and the plasma layer is removed. Plasma LTB4 concentrations are then measured using an antibody-based homogenous time-resolved fluorescence method (CisBio, Bedford, Mass.).

For 20 compounds, IC50 and inhibition results are on record in patent US8580825B2, “Oxadiazole inhibitors of leukotriene production” (Boehringer Ingelheim International GmbH, priority 2010, dated 2013).

For orientation: IC50 means the concentration that gives 50% inhibition. One may read the inhibition as the relative decrease from the control value, in per cent.

Turning to `CC(C)n1cc(-c2nc(C(C)(c3ccc(-c4cnc(N)nc4)nc3)C(C)C)no2)cn1` (stereo not shown) [Example 28, 5-[5-(3-methyl-2-{5-[1-(propan-2-yl)-1H-pyrazol-4-yl]-1,2,4-oxadiazol-3-yl}butan-2-yl)pyridin-2-yl]pyrimidin-2-amine], the IC50 in assay [1] was 3.8 nM; in assay [2], 72 nM.

Consider `CCn1cc(-c2nc(C(C)(c3ccc(-c4cnc(N)nc4)nc3)C(C)C)no2)cn1` (stereo not shown) [Example 29, 5-(5-{2-[5-(1-ethyl-1H-pyrazol-4-yl)-1,2,4-oxadiazol-3-yl]-3-methylbutan-2-yl}pyridin-2-yl)pyrimidin-2-amine], for which the IC50 in assay [1] was found to be 4 nM; in assay [2], 40 nM.

In the case of `COCCOCCn1cc(-c2nc(C(C)(c3ccc(-c4cnc(N)nc4)nc3)C(C)C)no2)cn1` (stereo not shown) [Example 30, 5-{5-[2-(5-{1-[2-(2-methoxyethoxy)ethyl]-1H-pyrazol-4-yl}-1,2,4-oxadiazol-3-yl)-3-methylbutan-2-yl]pyridin-2-yl}pyrimidin-2-amine], the IC50 turned out to be 12 nM in assay [1] and 160 nM in assay [2].

Consider `CC(C)[C@](C)(c1ccc(-c2cnc(N)nc2)nc1)c1noc(-c2cnn(C3COC3)c2)n1` [Example 31, 5-{5-[(2R)-3-methyl-2-{5-[1-(oxetan-3-yl)-1H-pyrazol-4-yl]-1,2,4-oxadiazol-3-yl}butan-2-yl]pyridin-2-yl}pyrimidin-2-amine], for which the IC50 in assay [1] was determined as 1.4 nM; in assay [2], 12 nM.

For the compound `CC(C)C(C)(c1ccc(-c2cnc(N)nc2)nc1)c1noc(-c2ccc(NCC(C)(C)O)nn2)n1` (stereo not shown) [Example 32, 1-{[6-(3-{2-[6-(2-aminopyrimidin-5-yl)pyridin-3-yl]-3-methylbutan-2-yl}-1,2,4-oxadiazol-5-yl)pyridazin-3-yl]amino}-2-methylpropan-2-ol], the IC50 in assay [1] was found to be 17.3 nM; in assay [2] it was 860 nM.

`CCOC(=O)C(C)(C)Cn1cc(-c2nc(C(C)(c3ccc(-c4cnc(N)nc4)nc3)C(C)C)no2)cn1` (stereo not shown) [Example 33, ethyl 3-[4-(3-{2-[6-(2-aminopyrimidin-5-yl)pyridin-3-yl]-3-methylbutan-2-yl}-1,2,4-oxadiazol-5-yl)-1H-pyrazol-1-yl]-2,2-dimethylpropanoate]: the IC50 in assay [1] is 5.2 nM; in assay [2], 210 nM.

As to `CC(C)[C@](C)(c1ccc(-c2cnc(N)nc2)nc1)c1noc(-c2cnn(C(C)(C)CO)c2)n1` [Example 34, 2-[4-(3-{(2R)-2-[6-(2-aminopyrimidin-5-yl)pyridin-3-yl]-3-methylbutan-2-yl}-1,2,4-oxadiazol-5-yl)-1H-pyrazol-1-yl]-2-methylpropan-1-ol], the IC50 turned out to be 6.6 nM in assay [1] and 94 nM in assay [2].

`CC(C)[C@@](C)(c1ccc(-c2cnc(N)nc2)nc1)c1noc(-c2cnn(C(C)(C)CO)c2)n1` [Example 35, 2-[4-(3-{(2S)-2-[6-(2-aminopyrimidin-5-yl)pyridin-3-yl]-3-methylbutan-2-yl}-1,2,4-oxadiazol-5-yl)-1H-pyrazol-1-yl]-2-methylpropan-1-ol]: the values for the IC50 in assay [1] and in assay [2] were 210 nM and 3200 nM, respectively.

With `Cc1ccc(C)n1-c1ncc(-c2ccc(C(C)(c3noc(-c4cn[nH]c4)n3)C(C)C)cn2)cn1` (stereo not shown) [Example 36, 2-(2,5-dimethyl-1H-pyrrol-1-yl)-5-(5-{3-methyl-2-[5-(1H-pyrazol-4-yl)-1,2,4-oxadiazol-3-yl]butan-2-yl}pyridin-2-yl)pyrimidine], the inhibition at 1 µM in assay [1] (read-out: FLAP SPA inhibition at 1 uM) was found to be 30%. Also, the IC50 in assay [2] is greater than 5000 nM.

Take `CC(C)[C@@](C)(c1ccc(-c2cnc(N)nc2)nc1)c1noc(-c2cnn(CC(C)(C)O)c2)n1` [Example 37, 1-[4-(3-{(2S)-2-[6-(2-aminopyrimidin-5-yl)pyridin-3-yl]-3-methylbutan-2-yl}-1,2,4-oxadiazol-5-yl)-1H-pyrazol-1-yl]-2-methylpropan-2-ol]: the figures for the IC50 in assay [1] and in assay [2] were 168 nM and greater than 5000 nM, respectively.

Take `CC(C)[C@](C)(c1ccc(-c2cnc(N)nc2)nc1)c1noc(-c2cnn(CC(C)(C)O)c2)n1` [Example 38, 1-[4-(3-{(2R)-2-[6-(2-aminopyrimidin-5-yl)pyridin-3-yl]-3-methylbutan-2-yl}-1,2,4-oxadiazol-5-yl)-1H-pyrazol-1-yl]-2-methylpropan-2-ol]: the IC50 in assay [1] came to 6.4 nM; in assay [2] it was 33 nM.

As for `CC(C)C(C)(c1ccc(-c2cnc(N)nc2)nc1)c1noc(-c2cnn(CC(C)(C)C(=O)O)c2)n1` (stereo not shown) [Example 39, 3-[4-(3-{2-[6-(2-aminopyrimidin-5-yl)pyridin-3-yl]-3-methylbutan-2-yl}-1,2,4-oxadiazol-5-yl)-1H-pyrazol-1-yl]-2,2-dimethylpropanoic acid], the results for the IC50 in assay [1] and in assay [2] were 20.4 nM and greater than 5000 nM, respectively.

Take `CCNc1cnc(-c2nc([C@](C)(c3ccc(-c4cnc(N)nc4)nc3)C(C)C)no2)cn1` [Example 40, 5-{5-[(2S)-2-{5-[5-(ethylamino)pyrazin-2-yl]-1,2,4-oxadiazol-3-yl}-3-methylbutan-2-yl]pyridin-2-yl}pyrimidin-2-amine]: the figures for the IC50 in assay [1] and in assay [2] were 7.9 nM and 100 nM, respectively.

As to `CCNc1cnc(-c2nc([C@@](C)(c3ccc(-c4cnc(N)nc4)nc3)C(C)C)no2)cn1` [Example 41, 5-{5-[(2R)-2-{5-[5-(ethylamino)pyrazin-2-yl]-1,2,4-oxadiazol-3-yl}-3-methylbutan-2-yl]pyridin-2-yl}pyrimidin-2-amine], the IC50 was found to be 1.8 nM in assay [1] and 34 nM in assay [2].

In the case of `CCNc1ccc(-c2nc(C(C)(c3ccc(-c4cnc(N)nc4)nc3)C(C)C)no2)nn1` (stereo not shown) [Example 42, 6-(3-{2-[6-(2-aminopyrimidin-5-yl)pyridin-3-yl]-3-methylbutan-2-yl}-1,2,4-oxadiazol-5-yl)-N-ethylpyridazin-3-amine], the IC50 in assay [1] amounted to 8.3 nM; in assay [2] it was 210 nM.

Take `CC(C)[C@](C)(c1ccc(-c2cnc(N)nc2)nc1)c1noc(-c2cn[nH]c2)n1` [Example 43, 5-(5-{(2R)-3-methyl-2-[5-(1H-pyrazol-4-yl)-1,2,4-oxadiazol-3-yl]butan-2-yl}pyridin-2-yl)pyrimidin-2-amine]: the figures for the IC50 in assay [1] and in assay [2] were 1.2 nM and 32 nM, respectively.

Turning to `CC(C)[C@](C)(c1ccc(-c2cnc(N)nc2)nc1)c1noc(-c2cnn(CC(F)F)c2)n1` [Example 44], the IC50 was found to be 0.9 nM in assay [1] and 24 nM in assay [2].

Take `CC(C)[C@@](C)(c1ccc(-c2cnc(N)nc2)nc1)c1noc(-c2cnn(CC(F)F)c2)n1` [Example 45, 5-{5-[(2S)-2-{5-[1-(2,2-difluoroethyl)-1H-pyrazol-4-yl]-1,2,4-oxadiazol-3-yl}-3-methylbutan-2-yl]pyridin-2-yl}pyrimidin-2-amine]: the IC50 is 141 nM in assay [1] and 1400 nM in assay [2].

For `COCCOCCn1cc(-c2nc([C@@](C)(c3ccc(-c4cnc(N)nc4)nc3)C(C)C)no2)cn1` [Example 46, 5-{5-[(2R)-2-(5-{1-[2-(2-methoxyethoxy)ethyl]-1H-pyrazol-4-yl}-1,2,4-oxadiazol-3-yl)-3-methylbutan-2-yl]pyridin-2-yl}pyrimidin-2-amine], the IC50 in assay [1] came to 5 nM; in assay [2], 98 nM.

`COCCOCCn1cc(-c2nc([C@](C)(c3ccc(-c4cnc(N)nc4)nc3)C(C)C)no2)cn1` [Example 47, 5-{5-[(2S)-2-(5-{1-[2-(2-methoxyethoxy)ethyl]-1H-pyrazol-4-yl}-1,2,4-oxadiazol-3-yl)-3-methylbutan-2-yl]pyridin-2-yl}pyrimidin-2-amine]: the IC50 in assay [1] was 180 nM; in assay [2], 2000 nM.
